Data published in ChEMBL document CHEMBL5325407, “Structure-based development of potent Plasmodium falciparum M1 and M17 aminopeptidase selective and dual inhibitors via S1'-region optimisation” (Eur J Med Chem, 2023).
In brackets after ≈: the same amount, converted by molar mass. Activity calls are given as the source filed them. The rule behind the calls is not given here.

Tests used:
[1] = (§1) Inhibition of C-terminal 6-His tagged Plasmodium falciparum M1 aminopeptidase (195 to 1085 residues) expressed in Escherichia coli BL21(DE3) cells using H-Leu-NHMec as substrate assessed as apparent inhibition constant preincubated for 10 mins followed by substrate addition by spectrofluorimetric analysis; conditions: read-out: Ki(app)
[2] = as §1, with “M17” for “M1”, “(85” for “(195”, “605” for “1085”, “BL21 (DE3)” for “BL21(DE3)”; conditions: read-out: Ki(app)
Plasmodium falciparum [3] = assay: Antiplasmodial activity against drug-sensitive Plasmodium falciparum 3D7 infected in Red blood cell assessed as growth inhibition measured after 72 hrs by LDH assay; assay type: functional, organism-based; conditions: 3D7, Erythrocyte
[4] = as §1, with “initial” for “apparent”
Plasmodium falciparum [5] = assay: Inhibition of C-terminal 6-His tagged Plasmodium falciparum M17 aminopeptidase (85 to 605 residues) expressed in Escherichia coli BL21 (DE3) cells using H-Leu-NHMec as substrate at less than 500 nM preincubated for 10 mins followed by substrate addition by spectrofluorimetric analysis
Plasmodium falciparum [6] = assay: Inhibition of C-terminal 6-His tagged Plasmodium falciparum M1 aminopeptidase (195 to 1085 residues) expressed in Escherichia coli BL21(DE3) cells using H-Leu-NHMec as substrate at less than 500 nM preincubated for 10 mins followed by substrate addition by spectrofluorimetric analysis
[7] = Metabolic stability in mouse liver microsomes assessed as half life measured for 60 mins in presence of NADPH; assay type: ADME, Microsome
[8] = Inhibition of TEV-fused Plasmodium falciparum M17 aminopeptidase (192 to 1085 residues) expressed in Escherichia coli Rosetta 2 (DE3) cells using alanine para-nitroanilide as substrate assessed as apparent inhibition constant measured after 30 mins by spectrophotometric analysis; conditions: read-out: Ki(app)
[9] = Kinetic solubility of the compound in phosphate buffer at pH 6.5 measured after 30 mins by nephelometric analysis; assay type: physicochemical; conditions: read-out: Kinetic_solubility
[10] = Inhibition of TEV-fused Plasmodium falciparum M1 aminopeptidase (192 to 1085 residues) expressed in Escherichia coli Rosetta 2 (DE3) cells using alanine para-nitroanilide as substrate assessed as apparent inhibition constant measured after 30 mins by spectrophotometric analysis; conditions: read-out: Ki(app)
[11] = Kinetic solubility of the compound in 0.01 M HCL at pH 2.0 measured after 30 mins by nephelometric analysis; assay type: physicochemical; conditions: read-out: Kinetic_solubility
[12] = Metabolic stability in human liver microsomes assessed as half life measured for 60 mins in presence of NADPH; assay type: ADME, Microsome

| SMILES | Ki [1] [nM] | Ki [2] [nM] | EC50 (Plasmodium falciparum [3]) [nM] | also measured |
| --- | --- | --- | --- | --- |
| O=C(CNc1ccccc1)NC(C(=O)NO)c1ccc(Cl)cc1 (stereo not given) | 79 | > 500 | 200 | – |
| O=C(CNc1ccc(F)cc1)NC(C(=O)NO)c1ccc(-c2cc(F)c(F)c(F)c2)cc1 (stereo not given) | > 500 | > 500 | – | – |
| O=C(CNc1ccc(F)c(F)c1)NC(C(=O)NO)c1ccc(-c2cc(F)c(F)c(F)c2)cc1 (stereo not given) | > 500 | > 500 | – | – |
| O=C(CNc1ccccc1F)NC(C(=O)NO)c1ccc(-c2cc(F)c(F)c(F)c2)cc1 (stereo not given) | > 500 | > 500 | 285 | – |
| O=C(CNc1cccc(F)c1)NC(C(=O)NO)c1ccc(Cl)cc1 (stereo not given) | 49 | > 500 | 175 | – |
| O=C(NC(C(=O)NO)c1ccc(-c2cc(F)c(F)c(F)c2)cc1)C1CCNC1 (stereo not given) | > 500 | > 500 | – | – |
| O=C(CNc1cc(F)cc(F)c1)NC(C(=O)NO)c1ccc(-c2cc(F)c(F)c(F)c2)cc1 (stereo not given) | 131 | > 500 | 675 | Ki [4]: 513 nM |
| O=C(COc1ccccc1)NC(C(=O)NO)c1ccc(Br)cc1 (stereo not given) | > 500 | 230 | 620 | – |
| O=C(CNc1ccc2cc[nH]c2c1)NC(C(=O)NO)c1ccc(Br)cc1 (stereo not given) | 35 | > 500 | 155 | – |
| O=C(CCc1ccccc1)NC(C(=O)NO)c1ccc(Br)cc1 (stereo not given) | 222 | 14 | 205 | – |
| O=C(NC(C(=O)NO)c1ccc(-c2cc(F)c(F)c(F)c2)cc1)C1CCN1 (stereo not given) | > 500 | > 500 | – | – |
| O=C(CNc1ccc(F)cc1)NC(C(=O)NO)c1ccc(Cl)cc1 (stereo not given) | 49 | > 500 | 220 | – |
| CN(CC(=O)NC(C(=O)NO)c1ccc(Br)cc1)c1ccccc1 (stereo not given) | 18 | > 500 | 145 | – |
| O=C(CN1CCC1)NC(C(=O)NO)c1ccc(-c2cc(F)c(F)c(F)c2)cc1 (stereo not given) | 263 | > 500 | 1800 | – |
| CC(C)(N)CC(=O)NC(C(=O)NO)c1ccc(-c2cc(F)c(F)c(F)c2)cc1 (stereo not given) | 320 | 28 | 1350 | – |
| CN1CCC1C(=O)NC(C(=O)NO)c1ccc(-c2cc(F)c(F)c(F)c2)cc1 (stereo not given) | > 500 | > 500 | – | – |
| O=C(CSc1ccccc1)NC(C(=O)NO)c1ccc(Br)cc1 (stereo not given) | 68 | 287 | 230 | – |
| CN1CCC(C(=O)NC(C(=O)NO)c2ccc(-c3cc(F)c(F)c(F)c3)cc2)C1 (stereo not given) | > 500 | > 500 | – | – |
| O=C(CNc1cccc(F)c1)NC(C(=O)NO)c1ccc(Br)cc1 (stereo not given) | 21 | > 500 | 135 | – |
| O=C(CCc1ccccc1)NC(C(=O)NO)c1ccc(-c2cc(F)c(F)c(F)c2)cc1 (stereo not given) | 246 | 70 | 460 | – |

| SMILES | Ki [1] [nM] | Ki [2] [nM] | EC50 (Plasmodium falciparum [3]) [nM] | also measured |
| --- | --- | --- | --- | --- |
| COc1cccc(NCC(=O)NC(C(=O)NO)c2ccc(Br)cc2)c1 (stereo not given) | 72 | > 500 | 102 | inhibition (Plasmodium falciparum [5]): inactive |
| CN1CC(C(=O)NC(C(=O)NO)c2ccc(-c3cc(F)c(F)c(F)c3)cc2)C1 (stereo not given) | > 500 | > 500 | – | – |
| CC(C)(C)C(=O)NC(C(=O)NO)c1ccc(-c2cc(F)c(F)c(F)c2)cc1 (stereo not given) | – | – | 340 | – |
| O=C(NC(C(=O)NO)c1ccc(-c2cc(F)c(F)c(F)c2)cc1)C1CCCN1 (stereo not given) | 330 | > 500 | 625 | – |
| CN(C)C(C)(C)CC(=O)NC(C(=O)NO)c1ccc(-c2cc(F)c(F)c(F)c2)cc1 (stereo not given) | 500 | 293 | 825 | – |
| O=C(CNc1cc(F)cc(F)c1)NC(C(=O)NO)c1ccc(Br)cc1 (stereo not given) | 16 | > 500 | 250 | – |
| COc1ccc(NCC(=O)NC(C(=O)NO)c2ccc(Br)cc2)cc1 (stereo not given) | 88 | > 500 | 114 | inhibition (Plasmodium falciparum [5]): inactive |
| O=C(COc1ccccc1)NC(C(=O)NO)c1ccc(-c2cc(F)c(F)c(F)c2)cc1 (stereo not given) | 390 | 137 | 1450 | – |
| O=C(CNc1ccc(F)c(F)c1)NC(C(=O)NO)c1ccc(Br)cc1 (stereo not given) | > 500 | > 500 | – | – |
| O=C(NC(C(=O)NO)c1ccc(-c2cc(F)c(F)c(F)c2)cc1)C1CCOC1 (stereo not given) | 259 | 307 | 605 | – |
| O=C(CN1CCCC1)NC(C(=O)NO)c1ccc(-c2cc(F)c(F)c(F)c2)cc1 (stereo not given) | 456 | > 500 | 725 | – |
| CC1(C(=O)NC(C(=O)NO)c2ccc(-c3cc(F)c(F)c(F)c3)cc2)COC1 (stereo not given) | 439 | 294 | 610 | – |
| CN(C)CC(=O)NC(C(=O)NO)c1ccc(-c2cc(F)c(F)c(F)c2)cc1 (stereo not given) | 185 | > 500 | 480 | – |
| COc1ccc(NCC(=O)NC(C(=O)NO)c2ccc(-c3cc(F)c(F)c(F)c3)cc2)cc1 (stereo not given) | > 500 | > 500 | – | – |
| CN(CC(=O)NC(C(=O)NO)c1ccc(-c2cc(F)c(F)c(F)c2)cc1)c1ccccc1 (stereo not given) | > 500 | > 500 | – | – |
| O=C(CNc1ccc2cc[nH]c2c1)NC(C(=O)NO)c1ccc(-c2cc(F)c(F)c(F)c2)cc1 (stereo not given) | 146 | > 500 | 220 | – |
| CCN(CC)CCCC(C)Nc1ccnc2cc(Cl)ccc12 (stereo not given) [CHLOROQUINE] | – | – | 33 | – |
| O=C(CNc1ccc(F)cc1)NC(C(=O)NO)c1ccc(Br)cc1 (stereo not given) | 38 | > 500 | 250 | – |
| O=C(NC1CCCC1)NC(C(=O)NO)c1ccc(-c2cc(F)c(F)c(F)c2)cc1 (stereo not given) | 311 | 122 | 370 | – |
| O=C(CNc1ccccc1)NC(C(=O)NO)c1ccc(Br)cc1 (stereo not given) | 36 | > 500 | 175 | – |

| SMILES | Ki [1] [nM] | Ki [2] [nM] | EC50 (Plasmodium falciparum [3]) [nM] | also measured |
| --- | --- | --- | --- | --- |
| COc1ccccc1NCC(=O)NC(C(=O)NO)c1ccc(Br)cc1 (stereo not given) | 128 | > 500 | 145 | inhibition (Plasmodium falciparum [5]): inactive |
| O=C(NC(C(=O)NO)c1ccc(-c2cc(F)c(F)c(F)c2)cc1)C1CCO1 (stereo not given) | 203 | > 500 | 350 | – |
| O=C(NC(C(=O)NO)c1ccc(Br)cc1)c1cc2ccccc2[nH]1 (stereo not given) | > 500 | > 500 | – | – |
| O=C(NC(C(=O)NO)c1ccc(-c2cc(F)c(F)c(F)c2)cc1)c1cc2ccccc2[nH]1 (stereo not given) | > 500 | > 500 | – | inhibition (Plasmodium falciparum [5]): inactive; inhibition (Plasmodium falciparum [6]): inactive |
| O=C(CSc1ccccc1)NC(C(=O)NO)c1ccc(-c2cc(F)c(F)c(F)c2)cc1 (stereo not given) | 195 | 238 | 430 | – |
| O=C(CN1CCCCC1)NC(C(=O)NO)c1ccc(-c2cc(F)c(F)c(F)c2)cc1 (stereo not given) | > 500 | > 500 | – | – |
| CN1CCCC1C(=O)NC(C(=O)NO)c1ccc(-c2cc(F)c(F)c(F)c2)cc1 (stereo not given) | > 500 | > 500 | – | – |
| COc1cccc(NCC(=O)NC(C(=O)NO)c2ccc(-c3cc(F)c(F)c(F)c3)cc2)c1 (stereo not given) | > 500 | > 500 | – | – |
| CC(C)(C)CC(=O)NC(C(=O)NO)c1ccc(-c2cc(F)c(F)c(F)c2)cc1 (stereo not given) | – | – | 63 | half-life [7]: 1.5 h; Ki [8]: 101 nM; solubility kinetic at 0.5 h [9]: 12.5 µg/mL (≈ 31.7 µM); Ki [10]: 269 nM; solubility kinetic at 0.5 h [11]: 12.5 µg/mL (≈ 31.7 µM); half-life [12]: 2.48 h |
| CC(C)NC(=O)NC(C(=O)NO)c1ccc(-c2cc(F)c(F)c(F)c2)cc1 (stereo not given) | > 500 | 120 | 285 | – |
| CN(C)C(C)(C)C(=O)NC(C(=O)NO)c1ccc(-c2cc(F)c(F)c(F)c2)cc1 (stereo not given) | > 500 | > 500 | – | – |
| O=C(CNc1cccc(F)c1)NC(C(=O)NO)c1ccc(-c2cc(F)c(F)c(F)c2)cc1 (stereo not given) | > 500 | > 500 | – | – |
| CC(C)(C)NC(=O)NC(C(=O)NO)c1ccc(-c2cc(F)c(F)c(F)c2)cc1 (stereo not given) | > 500 | 430 | – | – |
| CC(C)(O)CC(=O)NC(C(=O)NO)c1ccc(-c2cc(F)c(F)c(F)c2)cc1 (stereo not given) | 154 | 90 | 155 | – |
| O=C(CNc1ccccc1F)NC(C(=O)NO)c1ccc(Br)cc1 (stereo not given) | 26 | > 500 | 155 | – |
| O=C(NC(C(=O)NO)c1ccc(-c2cc(F)c(F)c(F)c2)cc1)C1CNC1 (stereo not given) | > 500 | > 500 | – | – |
| COc1ccccc1NCC(=O)NC(C(=O)NO)c1ccc(-c2cc(F)c(F)c(F)c2)cc1 (stereo not given) | > 500 | > 500 | – | – |
| CC(C)(N)C(=O)NC(C(=O)NO)c1ccc(-c2cc(F)c(F)c(F)c2)cc1 (stereo not given) | 227 | > 500 | 1200 | – |
